Test results reported in patent US8058306B2, “Phenyl pyrrole aminoguanidine derivatives” (Action Pharma A/S, priority 2006, dated 2011).
“And” between values parts separate entries of the source, which are not always exact repeats. Equal entries are not always repeated. “Also recorded” adds a separate entry of the source. Where two headings read alike, the source gives them in different places.

Assay: Plasma kinetics in rat following intravenous and oral administration;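 as to AUC0-∞: parameter is AUC from zero to infinity in ng·h/mL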
Assay type: in vivo, Sprague Dawley rats
Details: male rats
Experimental: This study determined the intravenous pharmacokinetics and oral bioavailability of compound 1 of the invention (see FIG. 1A, structure no. 1), compound 2 of the invention (see FIG. 1D, structure no. 19) and compound 3 of the invention (see FIG. 1I, structure no. 53) following administration to Sprague Dawley rats at a dose level of 10 mg/kg.
Six groups of 3 male rats received either a single intravenous or single oral administration of compound 1, 2 or 3 of the invention at a dose level of 10 mg/kg. Blood samples were obtained at various times after dosing. Plasma samples were analysed for unchanged test item using a suitable LC-MS/MS method. Pharmacokinetic parameters were estimated from individual plasma concentrations.
Eighteen male rats each received either a single intravenous or a single oral administration of either compound 1, 2 or 3 at a dose level of 10 mg/kg. The formulation was orally administered to each animal by gastric gavage and intravenously administered to each animal via a tail vein. The dose was administered at a dose volume of 5 mL/kg. The formulations were administered to each animal according to the details in the following table:
Blood samples (ca 0.3 mL) were removed from the femoral vein of each animal into tubes containing lithium heparin as anticoagulant.
Blood samples were collected from 3 rats at the following times after dose administration: • 3, 6, 15, 45 min and 1.5, 2.5, 4, 6, 8, 24 h post dose. Oral Administration
Blood samples were collected from 3 rats at the following times after dose administration: • 5, 15, 45 min and 1.5, 2.5, 4, 6, 8, 24 h post dose. Processing of Blood Samples
Pharmacokinetic parameters of compound 1, 2 and 3 were derived by non-compartmental analysis using WinNonLin Pro version 5.0.1 (Pharsight 2005). The following parameters were derived, where appropriate, from the individual plasma concentration versus time profiles:
• F % The absolute oral bioavailability calculated as [AUC0-t (oral)*Dose(iv)/AUC0-t (iv)*Dose (oral)]*100 based on mean values derived after oral and intravenous administration Consideration was given to the estimation of λz and corresponding t1/2 values. Three or more points are required within the terminal phase for λz and t1/2 to be estimated. The following additional variables were tabulated to aid identification of potentially unreliable estimates of t1/2 and AUC:
Pharmacokinetic parameters were reported as geometric mean except Tmax which was reported as the median. Geometric coefficient of variation was calculated as: […]
Actual sampling times were used for all calculations of pharmacokinetic parameters. Plasma concentrations that were below the limit of quantification were taken as zero for the pharmacokinetic analysis.

[1] = oral 10 mg/kg, individual animals, acetate, 10 mg/kg

SMILES: N=C(N)NN=CC=Cc1cccn1-c1ccccc1Br [Compound 3, [1-(2-bromophenyl)-1H-pyrrol-2-yl-allylideneamino]guanidinium acetate]
- AUC(0-inf) (male, Sprague Dawley, rat, plasma, po, 10 mg/kg, oral 10 mg/kg, Geometric mean): 837 ng·h/mL
- AUC(0-t) (male, Sprague Dawley, rat, plasma, po, 10 mg/kg, oral 10 mg/kg, Geometric mean, read-out: AUC0-t): 509 ng·h/mL
- Cmax (male, Sprague Dawley, rat, plasma, po, 10 mg/kg, oral 10 mg/kg, Geometric mean, read-out: Cmax): 108 ng/mL
- MRT (male, Sprague Dawley, rat, plasma, po, 10 mg/kg, oral 10 mg/kg, Geometric mean, read-out: MRT): 6.83 h
- half-life (male, Sprague Dawley, rat, plasma, po, 10 mg/kg, oral 10 mg/kg, Geometric mean, read-out: t1/2 (converted)): 3.3 h
- Tmax (male, Sprague Dawley, rat, plasma, po, 10 mg/kg, oral 10 mg/kg, Geometric mean, read-out: tmax): 4.59 h
- AUC(0-inf) (male, Sprague Dawley, rat, plasma, po, 10 mg/kg, oral 10 mg/kg, Median): 838 ng·h/mL
- AUC(0-t) (male, Sprague Dawley, rat, plasma, po, 10 mg/kg, oral 10 mg/kg, Median, read-out: AUC0-t): 565 ng·h/mL
- Cmax (male, Sprague Dawley, rat, plasma, po, 10 mg/kg, oral 10 mg/kg, Median, read-out: Cmax): 112 ng/mL
- MRT (male, Sprague Dawley, rat, plasma, po, 10 mg/kg, oral 10 mg/kg, Median, read-out: MRT): 6.83 h
- half-life (male, Sprague Dawley, rat, plasma, po, 10 mg/kg, oral 10 mg/kg, Median, read-out: t1/2 (converted)): 3.3 h
- Tmax (male, Sprague Dawley, rat, plasma, po, 10 mg/kg, oral 10 mg/kg, Median, read-out: tmax): 4.02 h
- AUC(0-inf) (male, Sprague Dawley, rat, plasma, po, 10 mg/kg, oral 10 mg/kg, individual animals): 863 ng·h/mL
- AUC(0-t) (male, Sprague Dawley, rat, plasma, po, 10 mg/kg, oral 10 mg/kg, individual animals, read-out: AUC0-t): 605 ng·h/mL
- Cmax (male, Sprague Dawley, rat, plasma, po, 10 mg/kg, oral 10 mg/kg, individual animals, read-out: Cmax): 132 ng/mL
- MRT (male, Sprague Dawley, rat, plasma, po, 10 mg/kg, oral 10 mg/kg, individual animals, read-out: MRT): 6.82 h
- half-life (male, Sprague Dawley, rat, plasma, po, 10 mg/kg, oral 10 mg/kg, individual animals, read-out: t1/2 (converted)): 3.19 h
- Tmax (male, Sprague Dawley, rat, plasma, po, 10 mg/kg, oral 10 mg/kg, individual animals, read-out: tmax): 4.02 h
- Tmax (male, Sprague Dawley, rat, plasma, po, 10 mg/kg, oral 10 mg/kg, from mean plasma concentrations, read-out: time post dose at which maximum plasma concentration was observed (tmax)): 4 h
- half-life (male, Sprague Dawley, rat, plasma, po, 10 mg/kg, oral 10 mg/kg, read-out: apparent terminal half-life (converted)): 3.3 h
- concentration at 0.08 h (male, Sprague Dawley, rat, plasma, po, 10 mg/kg, single oral 10 mg/kg, 0.08 h, individual animals, LLOQ 2.50 (Table X: * 5.0, ** 25, diluted samples), read-out: Sample Concentration in plasma): 2.53 ng/mL
- concentration at 0.08 h (male, Sprague Dawley, rat, plasma, po, 10 mg/kg, single oral 10 mg/kg, 0.08 h, mean, read-out: Mean Concentration in plasma): 2.53 ng/mL
- concentration at 0.25 h (male, Sprague Dawley, rat, plasma, po, 10 mg/kg, single oral 10 mg/kg, 0.25 h, mean of 3, read-out: Mean Concentration in plasma): 20.5 ng/mL
- concentration at 0.75 h (male, Sprague Dawley, rat, plasma, po, 10 mg/kg, single oral 10 mg/kg, 0.75 h, individual animals, read-out: Sample Concentration in plasma): 29.1 ng/mL
- concentration at 0.75 h (male, Sprague Dawley, rat, plasma, po, 10 mg/kg, single oral 10 mg/kg, 0.75 h, mean of 3, read-out: Mean Concentration in plasma): 30.8 ng/mL
- concentration at 1.5 h (male, Sprague Dawley, rat, plasma, po, 10 mg/kg, single oral 10 mg/kg, 1.5 h, mean of 3, read-out: Mean Concentration in plasma): 39.2 ng/mL
- concentration at 2.5 h (male, Sprague Dawley, rat, plasma, po, 10 mg/kg, single oral 10 mg/kg, 2.5 h, mean of 3, read-out: Mean Concentration in plasma): 62.7 ng/mL
- concentration at 4 h (male, Sprague Dawley, rat, plasma, po, 10 mg/kg, single oral 10 mg/kg, 4 h, individual animals, read-out: Sample Concentration in plasma): 112 ng/mL
- concentration at 4 h (male, Sprague Dawley, rat, plasma, po, 10 mg/kg, single oral 10 mg/kg, 4 h, mean of 3, read-out: Mean Concentration in plasma): 92.5 ng/mL
- concentration at 6 h (male, Sprague Dawley, rat, plasma, po, 10 mg/kg, single oral 10 mg/kg, 6 h, individual animals, read-out: Sample Concentration in plasma): 70.4 ng/mL
- concentration at 6 h (male, Sprague Dawley, rat, plasma, po, 10 mg/kg, single oral 10 mg/kg, 6 h, mean of 3, read-out: Mean Concentration in plasma): 80.1 ng/mL
- concentration at 8 h (male, Sprague Dawley, rat, plasma, po, 10 mg/kg, single oral 10 mg/kg, 8 h, individual animals, LLOQ 2.50, read-out: Sample Concentration in plasma): 50.1 ng/mL
- concentration at 8 h (male, Sprague Dawley, rat, plasma, po, 10 mg/kg, single oral 10 mg/kg, 8 h, mean, LLOQ 2.50, read-out: Mean Concentration in plasma): 60.8 ng/mL
- mean absorption time (MAT) (oral 10 mg/kg): 3.52 h
- MAT (oral 10 mg/kg, Arithmetic Mean): 3.59 h
- MAT (oral 10 mg/kg, Geometric mean): 3.52 h
- MAT (oral 10 mg/kg, Median): 3.59 h
- AUC0-∞ [1]: 812 ng·h/mL
- AUC(0-t) [1]: 565 ng·h/mL and 386 ng·h/mL
- Cmax [1]: 85.5 ng/mL
- MAT [1]: 2.86 h and 4.32 h
- MRT [1]: 6.84 h
- Tmax [1]: 6.00 h
- t1/2 [1]: 3.42 h
- maximum observed plasma concentration, mean value (oral 10 mg/kg, at tmax): 92.5 ng/mL
- Sample Concentration in plasma (single intravenous 10 mg/kg, 0.05 h, individual animals, acetate, 10 mg/kg): 2940 ng/mL and 4040 ng/mL
- Sample Concentration in plasma (single intravenous 10 mg/kg, 0.1 h, individual animals, acetate, 10 mg/kg): 1300 ng/mL and 1030 ng/mL
- Sample Concentration in plasma (single intravenous 10 mg/kg, 0.25 h, individual animals, acetate, 10 mg/kg): 904 ng/mL and 954 ng/mL
- Sample Concentration in plasma (single intravenous 10 mg/kg, 0.75 h, individual animals, acetate, 10 mg/kg): 445 ng/mL and 545 ng/mL
- Sample Concentration in plasma (single intravenous 10 mg/kg, 1.5 h, individual animals, acetate, 10 mg/kg): 327 ng/mL and 403 ng/mL
- Sample Concentration in plasma (single intravenous 10 mg/kg, 2.5 h, individual animals, acetate, 10 mg/kg): 274 ng/mL and 240 ng/mL
- Sample Concentration in plasma (single intravenous 10 mg/kg, 4 h, individual animals, acetate, 10 mg/kg): 225 ng/mL and 171 ng/mL
- Sample Concentration in plasma (single intravenous 10 mg/kg, 6 h, individual animals, acetate, 10 mg/kg): 129 ng/mL and 124 ng/mL
- Sample Concentration in plasma (single intravenous 10 mg/kg, 8 h, individual animals, LLOQ 2.50, acetate, 10 mg/kg): <LLOQ and 100 ng/mL
- Sample Concentration in plasma (single intravenous 10 mg/kg, 24 h, individual animals, LLOQ 2.50, acetate, 10 mg/kg): <LLOQ and 2.55 ng/mL
- adverse effects (single intravenous or oral administration, 10 mg/kg, acetate): No adverse effects; also recorded: No adverse affects
- Sample Concentration in plasma (single oral 10 mg/kg, 0.08 h, individual animals, LLOQ 2.50 (Table X: * 5.0, ** 25, diluted samples), acetate, 10 mg/kg): <LLOQ
- Sample Concentration in plasma (single oral 10 mg/kg, 0.25 h, individual animals, acetate, 10 mg/kg): 14.7 ng/mL and 14.1 ng/mL and 32.8 ng/mL
- Sample Concentration in plasma (single oral 10 mg/kg, 0.75 h, individual animals, acetate, 10 mg/kg): 26.6 ng/mL and 36.6 ng/mL
- Sample Concentration in plasma (single oral 10 mg/kg, 1.5 h, individual animals, acetate, 10 mg/kg): 61.4 ng/mL and 19.2 ng/mL and 37.0 ng/mL
- Sample Concentration in plasma (single oral 10 mg/kg, 2.5 h, individual animals, acetate, 10 mg/kg): 82.5 ng/mL and 37.2 ng/mL and 68.4 ng/mL
- Sample Concentration in plasma (single oral 10 mg/kg, 4 h, individual animals, acetate, 10 mg/kg): *33.4 ng/mL and 132 ng/mL
- Sample Concentration in plasma (single oral 10 mg/kg, 6 h, individual animals, acetate, 10 mg/kg): 85.5 ng/mL and 84.5 ng/mL
- Sample Concentration in plasma (single oral 10 mg/kg, 8 h, individual animals, LLOQ 2.50, acetate, 10 mg/kg): 76.1 ng/mL and 56.2 ng/mL
- Sample Concentration in plasma (single oral 10 mg/kg, 24 h, individual animals, LLOQ 2.50): <LLOQ
- Mean Concentration in plasma (single oral 10 mg/kg, 24 h, mean, LLOQ 2.50): <LLOQ
